Experimental data reported in US20240139191A1, “SMALL MOLECULES AS LARP1 LIGANDS” (priority 2020, published 2024).

Biological target: LARP1 DM15 region (Homo sapiens, UniProt Q6PKG0)
Assay: binding of LARP1 DM15 region to capped RNA motifs
Conditions: relative to endogenous (human) m7GpppC motif; FIGS. 1B & C

For `Cn1c[n+]([C@@H]2O[C@H](COP(=O)(O)OP(=O)(O)OP(=O)(O)OC[C@H]3O[C@@H](n4cnc5c(N)ncnc54)[C@H](O)[C@@H]3O)[C@@H](O)[C@H]2O)c2nc(N)[nH]c(=O)c21` [m^7GpppA], the “interaction with DM15 region compared with m7GpppC-initiated mRNA targets” value was “even tighter interaction”.
